Data taken from patent US12319672B2, “Alpha-D-galactopyranoside derivatives” (Idorsia Pharmaceuticals Ltd, priority 2019, dated 2025).

Assays:
[1] = molecular target: human Gal-1 (hGal-1); experiment: Competitive binding assay: binding of biotinylated hGal-1 to microplate-adsorbed asialofetuin (ASF); conditions: Activities on hGal-1; mean values of several measurements
Method in brief: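 Spectrophotometric readout (streptavidin-peroxidase, ABTS) of biotinylated galectin retained on ASF-coated wells. Biotinylated hGal-1 or hGal-3, 300-1000 ng/mL, co-incubated with test compound 3 h at 4° C, then washed. Mean IC50 from repeat runs.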

[2] = molecular target: human Gal-3 (hGal-3) (Homo sapiens (Human), UniProt P17931); experiment: Competitive binding assay: binding of biotinylated hGal-3 to microplate-adsorbed asialofetuin (ASF); conditions: Activity on hGal-3; mean values of several measurements
Method in brief: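 Compounds in DMSO dilution series competed with 300-1000 ng/mL biotinylated hGal-3 for asialofetuin adsorbed on the plate (3 h, 4° C). Streptavidin-peroxidase at 80 ng/mL (1 h, 4° C) with ABTS gave a spectrophotometric read-out, and IC50 was reported as the mean of repeat runs.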

Chain of human Gal-1 (hGal-1) (P09382 2-135 limits assumed): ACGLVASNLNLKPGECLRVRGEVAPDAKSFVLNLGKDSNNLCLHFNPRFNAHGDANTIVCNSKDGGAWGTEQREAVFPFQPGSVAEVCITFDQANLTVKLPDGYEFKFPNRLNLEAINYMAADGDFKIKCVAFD
Chain of human Gal-3 (hGal-3) (P17931 whole entry): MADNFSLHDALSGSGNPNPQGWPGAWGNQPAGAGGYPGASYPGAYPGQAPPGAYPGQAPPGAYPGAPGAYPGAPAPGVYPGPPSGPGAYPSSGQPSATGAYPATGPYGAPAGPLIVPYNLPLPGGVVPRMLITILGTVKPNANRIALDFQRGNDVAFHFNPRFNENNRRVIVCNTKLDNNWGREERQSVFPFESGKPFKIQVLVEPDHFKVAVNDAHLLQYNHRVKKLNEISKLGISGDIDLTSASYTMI

Row | Compound | IC50 [1] | IC50 [2]
1 | CO[C@@H]1[C@@H](n2cc(-c3cc(F)c(F)c(F)c3)nn2)[C@@H](O)[C@@H](CO)O[C@@H]1C[C@@H]1CC(C2CCN(C(C)=O)CC2)=NO1 [Example 3.12, 1-(4-((S)-5-(((2R,3R,4S,5R,6R)-5-hydroxy-6-(hydroxymethyl)-3-methoxy-4-(4-(3,4,5-trifluorophenyl)-1H-1,2,3-triazol-1-yl)tetrahydro-2H-pyran-2-yl)methyl)-4,5-dihydroisoxazol-3-yl)piperidin-1-yl)ethan-1-one] | 520 nM | 70 nM
2 | COCC(C)(C)c1cc(C[C@H]2O[C@H](CO)[C@H](O)[C@H](n3cc(-c4ccc(C)c(F)c4F)nn3)[C@H]2OC)on1 [Ex 1.330] | 4360 nM | 61 nM
3 | COCC(C)(C)c1cc(C[C@H]2O[C@H](CO)[C@H](O)[C@H](n3cc(-c4cc(F)c(F)c(F)c4)nn3)[C@H]2OC)on1 [Ex 1.314] | 1380 nM | 130 nM
4 | COc1ccc(-c2cc(C[C@H]3O[C@H](CO)[C@H](O)[C@H](n4cc(-c5cc(F)c(F)c(F)c5)nn4)[C@H]3O)no2)cc1 [Ex 1.296] | 52200 nM | 1410 nM
5 | CO[C@@H]1[C@@H](n2cc(-c3cc(F)c(F)c(F)c3)nn2)[C@@H](O)[C@@H](CO)O[C@@H]1CC1=NO[C@@H](C2CCCCC2)C1 [Ex 1.128] | 15400 nM | 870 nM
6 | O=c1[nH]c2ccc(C3=NOC(C[C@H]4O[C@H](CO)[C@H](O)[C@H](n5cc(-c6cc(F)c(F)c(F)c6)nn5)[C@H]4O)C3)cc2o1 (some centres unmarked) [Ex 1.21] | 4770 nM | 150 nM
7 | CO[C@@H]1[C@@H](n2cc(-c3cc(F)c(F)c(F)c3)nn2)[C@@H](O)[C@@H](CO)O[C@@H]1Cc1cc(C2(O)COC2)on1 [Ex 1.69] | 6730 nM | 450 nM
8 | CCO[C@@H]1[C@@H](n2cc(-c3cc(F)c(F)c(F)c3)nn2)[C@@H](O)[C@@H](CO)O[C@@H]1Cc1cc(C2CCN(C(=O)OC(C)(C)C)CC2)on1 [Example 2.17, tert-butyl 4-(3-(((2R,3R,4S,5R,6R)-3-ethoxy-5-hydroxy-6-(hydroxymethyl)-4-(4-(3,4,5-trifluorophenyl)-1H-1,2,3-triazol-1-yl)tetrahydro-2H-pyran-2-yl)methyl)isoxazol-5-yl)piperidine-1-carboxylate] | 780 nM | 130 nM
9 | CO[C@@H]1[C@@H](n2cc(-c3cc(F)c(F)c(F)c3)nn2)[C@@H](O)[C@@H](CO)O[C@@H]1Cc1cc(C2CCN(C(C)=O)C2)on1 (mixture of isomers) [Example 2.09] | 8380 nM | 660 nM
10 | CO[C@@H]1[C@@H](n2cc(-c3cc(F)c(F)c(F)c3)nn2)[C@@H](O)[C@@H](CO)O[C@@H]1Cc1cc(C2(O)CCCN(C(=O)OC(C)(C)C)CC2)on1 (some centres unmarked) [Ex 1.76] | 13300 nM | 4620 nM
11 | CO[C@@H]1[C@@H](n2cc(-c3ccc(C)c(F)c3F)nn2)[C@@H](O)[C@@H](CO)O[C@@H]1Cc1cc(C2CCOCC2)on1 [Ex 1.186] | 6200 nM | 85 nM
12 | CO[C@@H]1[C@@H](n2cc(-c3cc(F)c(F)c(F)c3)nn2)[C@@H](O)[C@@H](CO)O[C@@H]1Cc1cc(C2CCN(S(=O)(=O)C(C)C)CC2)on1 [Example 3.47, (2R,3R,4S,5R,6R)-2-(hydroxymethyl)-6-((5-(1-(isopropylsulfonyl)piperidin-4-yl)isoxazol-3-yl)methyl)-5-methoxy-4-(4-(3,4,5-trifluorophenyl)-1H-1,2,3-triazol-1-yl)tetrahydro-2H-pyran-3-ol] | 760 nM | 50 nM
13 | CO[C@@H]1[C@@H](n2cc(-c3cc(F)c(F)c(F)c3)nn2)[C@@H](O)[C@@H](CO)O[C@@H]1Cc1cc(C2CCN(C(=O)N3CCCC3)CC2)on1 [Example 3.67, (4-(3-(((2R,3R,4S,5R,6R)-5-hydroxy-6-(hydroxymethyl)-3-methoxy-4-(4-(3,4,5-trifluorophenyl)-1H-1,2,3-triazol-1-yl)tetrahydro-2H-pyran-2-yl)methyl)isoxazol-5-yl)piperidin-1-yl)(pyrrolidin-1-yl)methanone] | 920 nM | 69 nM
14 | CC(C)(C)OC(=O)N1CCC(c2cc(C[C@H]3O[C@H](CO)[C@H](O)[C@H](n4cc(-c5cc(F)c(F)c(F)c5)nn4)[C@H]3O)no2)CC1 [Ex 1.40] | 740 nM | 43 nM
15 | CO[C@@H]1[C@@H](n2cc(-c3ccc(Cl)c(F)c3)nn2)[C@@H](O)[C@@H](CO)O[C@@H]1Cc1cc(C2CCN(C(=O)OC(C)(C)C)CC2)on1 [Ex 1.121] | 1090 nM | 82 nM
16 | CN=[S@@](=O)(C(C)C)N1CCC(c2cc(C[C@H]3O[C@H](CO)[C@H](O)[C@H](n4cc(-c5cc(F)c(F)c(F)c5)nn4)[C@H]3OC)no2)CC1 [Ex 1.138] | 15300 nM | 130 nM

Row | Compound | IC50 [1] | IC50 [2]
17 | CO[C@@H]1[C@@H](n2cc(-c3cc(F)c(F)c(F)c3)nn2)[C@@H](O)[C@@H](CO)O[C@@H]1Cc1cc(C2CCN([S+]([O-])C(C)(C)C)CC2)on1 (mixture of isomers) [Example 3.55, (2R,3R,4S,5R,6R)-6-((5-(1-((RS)-tert-butylsulfinyl)piperidin-4-yl)isoxazol-3-yl)methyl)-2-(hydroxymethyl)-5-methoxy-4-(4-(3,4,5-trifluorophenyl)-1H-1,2,3-triazol-1-yl)tetrahydro-2H-pyran-3-ol] | 2990 nM | 90 nM
18 | CO[C@@H]1[C@@H](n2cc(-c3cc(F)c(F)c(F)c3)nn2)[C@@H](O)[C@@H](CO)O[C@@H]1C[C@H]1CC(C2CCN(S(=O)(=O)C(C)C)CC2)=NO1 [Example 3.60, (2R,3R,4S,5R,6R)-2-(hydroxymethyl)-6-(((R)-3-(1-(isopropylsulfonyl)piperidin-4-yl)-4,5-dihydroisoxazol-5-yl)methyl)-5-methoxy-4-(4-(3,4,5-trifluorophenyl)-1H-1,2,3-triazol-1-yl)tetrahydro-2H-pyran-3-ol] | 5100 nM | 370 nM
19 | CO[C@@H]1[C@@H](n2cc(-c3cc(F)c(F)c(F)c3)nn2)[C@@H](O)[C@@H](CO)O[C@@H]1CC1=NO[C@H](C2CCCCC2)C1 [Ex 1.129] | 14700 nM | 270 nM
20 | CO[C@@H]1[C@@H](n2cc(-c3ccc(C)c(F)c3F)nn2)[C@@H](O)[C@@H](CO)O[C@@H]1Cc1cc(C(C)(C)CO)no1 [Ex 1.257] | 1780 nM | 44 nM
21 | CCN(C)C(=O)N1CCC(c2cc(C[C@H]3O[C@H](CO)[C@H](O)[C@H](n4cc(-c5cc(F)c(F)c(F)c5)nn4)[C@H]3OC)no2)CC1 [Example 3.68, N-ethyl-4-(3-(((2R,3R,4S,5R,6R)-5-hydroxy-6-(hydroxymethyl)-3-methoxy-4-(4-(3,4,5-trifluorophenyl)-1H-1,2,3-triazol-1-yl)tetrahydro-2H-pyran-2-yl)methyl)isoxazol-5-yl)-N-methylpiperidine-1-carboxamide] | 2460 nM | 110 nM
22 | CO[C@@H]1[C@@H](n2cc(-c3cc(F)cc(F)c3)nn2)[C@@H](O)[C@@H](CO)O[C@@H]1Cc1cc(C2CCN(C(=O)OC(C)(C)C)CC2)on1 [Ex 1.122] | 720 nM | 140 nM
23 | CO[C@@H]1[C@@H](n2cc(-c3ccc(Cl)c(F)c3F)nn2)[C@@H](O)[C@@H](CO)O[C@@H]1CC1CC(C(C)(C)C)=NO1 (some centres unmarked) [Ex 1.266] | 1560 nM | 91 nM
24 | OC[C@H]1O[C@H](Cc2cc(C3CCC4(CC3)OCCO4)on2)[C@H](O)[C@@H](n2cc(-c3cc(F)c(F)c(F)c3)nn2)[C@H]1O [Ex 1.77] | 6820 nM | 710 nM
25 | CO[C@@H]1[C@@H](n2cc(-c3cc(F)c(F)c(F)c3)nn2)[C@@H](O)[C@@H](CO)O[C@@H]1CC1CN(CC2CCN(C(=O)OC(C)(C)C)CC2)C(=O)O1 (mixture of isomers) [Example 5.16, tert-butyl 4-(((RS)-5-(((2R,3R,4S,5R,6R)-5-hydroxy-6-(hydroxymethyl)-3-methoxy-4-(4-(3,4,5-trifluorophenyl)-1H-1,2,3-triazol-1-yl)tetrahydro-2H-pyran-2-yl)methyl)-2-oxooxazolidin-3-yl)methyl)piperidine-1-carboxylate] | 42100 nM | 630 nM
26 | CO[C@@H]1[C@@H](n2cc(-c3cc(F)c(F)c(F)c3)nn2)[C@@H](O)[C@@H](CO)O[C@@H]1Cc1cc(C2(O)CCN(C(=O)OC(C)(C)C)CC2)on1 [Ex 1.132] | 760 nM | 69 nM
27 | CO[C@@H]1[C@@H](n2cc(-c3ccc(C)c(F)c3)nn2)[C@@H](O)[C@@H](CO)O[C@@H]1Cc1cc(C2CCCCC2)on1 [Ex 1.171] | 13200 nM | 440 nM
28 | CO[C@@H]1[C@@H](n2cc(-c3ccc(F)c(F)c3F)nn2)[C@@H](O)[C@@H](CO)O[C@@H]1Cc1cc(C2(O)CCC2)on1 [Ex 1.236] | 960 nM | 57 nM
29 | CO[C@@H]1[C@@H](n2cc(-c3cc(F)c(F)c(F)c3)nn2)[C@@H](O)[C@@H](CO)O[C@@H]1Cc1cc(C2(O)CCC2)no1 [Example 2.56, (2R,3R,4S,5R,6R)-6-((3-(1-hydroxycyclobutyl)isoxazol-5-yl)methyl)-2-(hydroxymethyl)-5-methoxy-4-(4-(3,4,5-trifluorophenyl)-1H-1,2,3-triazol-1-yl)tetrahydro-2H-pyran-3-ol] | 1770 nM | 490 nM
30 | CO[C@@H]1[C@@H](n2cc(-c3ccc(C)c(F)c3F)nn2)[C@@H](O)[C@@H](CO)O[C@@H]1Cc1cc(C2(O)CCCC2)on1 [Ex 1.239] | 6440 nM | 72 nM
31 | CNC(=O)CO[C@@H]1[C@@H](n2cc(-c3cc(F)c(F)c(F)c3)nn2)[C@@H](O)[C@@H](CO)O[C@@H]1Cc1cc(C(C)(C)C)on1 [Example 2.38, 2-(((2R,3R,4S,5R,6R)-2-((5-(tert-butyl)isoxazol-3-yl)methyl)-5-hydroxy-6-(hydroxymethyl)-4-(4-(3,4,5-trifluorophenyl)-1H-1,2,3-triazol-1-yl)tetrahydro-2H-pyran-3-yl)oxy)-N-methylacetamide] | 1990 nM | 190 nM
